Test results taken from patent publication US20220226334A1, “ANTIBODY CONJUGATE AND APPLICATION OF PHARMACEUTICAL COMPOSITION THEREOF” (SHANGHAI FUDAN-ZHANGJIANG BIO-PHARMACEUTICAL CO., LTD., priority 2019, published 2022).
Like-named read-outs stand apart in the source and are kept apart here. Where a SMILES comes first, the peptide text is derived from it. [ ]: non-standard residue; d: D form. The star is where a group is joined. Dolaproine = CO[C@@H]([C@@H]1CCCN1)[C@@H](C)C(=O)O; Dil = CC[C@H](C)[C@H](NC)[C@@H](CC(=O)O)OC; X1 = C[C@@H](N*)[C@@H](O)c1ccccc1; NMeV = CN[C@H](C(=O)O)C(C)C

How the values were obtained:
Karpas299 cells = assay: In vitro killing of Karpas299 cells (AlamarBlue), single drugs and combinations; assay type: cell-based, human
Method: (§1) After the sample was added, it was cultured in 5% CO2 at 37° C. for 77±2 hours, stained with AlamarBlue fluorescent dye, cultured for 19±2 hours, and read at 530 nm (excitation)/590 nm (emission). The IC50 value of the semi-inhibitory concentration of each sample was calculated by fitting with the computer's four-parameter equation software.
(§2) Cell proliferation method was used to investigate the killing effect of drugs on cells.

[1] = system: Hodgkin lymphoma cells L540; assay: In vitro killing of L540 cells, single drugs and combinations; assay type: cell-based
Method: as §1, §2

[2] = system: Hodgkin lymphoma cells L428; assay: In vitro killing of L428 cells (AlamarBlue), single drugs, MDR1 inhibitor, combinations
Method: Cell proliferation method was used to investigate the killing effect of drugs on cells. L428 cells were inoculated in 96-well cell culture plates at 5×10^4 cell/mL, i.e., 5000 cells per well. Doxorubicin was diluted to 259.5 ng/mL, 129.8 ng/mL, 64.88 ng/mL, 32.44 ng/mL, 21.63 ng/mL, 14.42 ng/mL, 9.611 ng/mL, 3.844 ng/mL, 1.538 ng/mL using cell culture medium, for a total of 9 concentrations. Serial dilutions of Doxorubicin were added to the culture plates of the seeded plates and incubated for 77±2 hours at 37° C. in a 5% CO2 incubator. The samples were stained with AlamarBlue fluorescent dye and incubated at 37° C. in a 5% CO2 incubator for 19±2 hours. Readings were performed at wavelength of 50 nm (excitation)/590 nm (emission). The IC50 value of Doxorubicin was calculated by fitting it with four-parameter equation.
Calcusyn, the software for calculating the combination index, was chosen to calculate the CI of the combination index at different killing levels,

[3] = system: Hodgkin lymphoma cells L428; conditions: known in the art; cited from earlier work
[4] = target: MDR1 (multidrug resistance gene 1 product, CD243, ABC B1) on the cell surface (UniProt P08183); assay: flow cytometry, PE-labelled UIC2 on HH cells (cells other than L428 did not express MDR1); PBS as negative control
[5] = target: MDR1 (multidrug resistance gene 1 product, CD243, ABC B1) on the cell surface (UniProt P08183); assay: flow cytometry, PE-labelled UIC2 on L540 cells (cells other than L428 did not express MDR1); PBS as negative control
[6] = target: MDR1 (multidrug resistance gene 1 product, CD243, ABC B1) on the cell surface (UniProt P08183); assay: flow cytometry, PE-labelled UIC2 on L428 cells (text: L428 specifically expressed MDR1 on the surface); PBS as negative control
[7] = target: MDR1 (multidrug resistance gene 1 product, CD243, ABC B1) on the cell surface (UniProt P08183); assay: flow cytometry, PE-labelled UIC2 on Karpas 299 cells (cells other than L428 did not express MDR1); PBS as negative control
[8] = Homo sapiens, L-428, read-out: IC50 of single drug
[9] = Homo sapiens, L-540, L540, Tables 8 and 13, read-out: IC50 of single drug
[10] = Homo sapiens, KARPAS-299, Karpas299 cells, Table 13, read-out: IC50 of single drug

Molecule	IC50 [2, 8] [µM]	IC50 [1, 9] [µM]	IC50 (Karpas299 cells; [10]) [µM]	further results
O=P1(N(CCCl)CCCl)NCCCO1 (stereo not shown) [Cyclophosphamide]	590	–	–	IC50 (Karpas299 cells; Homo sapiens, KARPAS-299, read-out: IC50 of single drug): 385 µM; IC50 ([1]; Homo sapiens, L-540, read-out: IC50 of single drug): 121 µM
CN(C)/N=N/c1[nH]cnc1C(N)=O [Dacarbazine]	178	31.3	–	–
COc1cccc2c1C(=O)c1c(O)c3c(c(O)c1C2=O)C[C@@](O)(C(=O)CO)C[C@@H]3O[C@H]1C[C@H](N)[C@H](O)[C@H](C)O1 [Doxorubicin]	0.0278	0.0585	0.0405	–
COc1cc([C@@H]2c3cc4c(cc3[C@@H](O[C@@H]3O[C@@H]5CO[C@@H](C)O[C@H]5[C@H](O)[C@H]3O)[C@H]3COC(=O)[C@H]23)OCO4)cc(OC)c1O [Etoposide]	54.2	30.1	64.1	–
CC[C@H](C)[C@@H]([C@@H](CC(=O)N1CCC[C@H]1[C@H](OC)[C@@H](C)C(=O)N[C@H](C)[C@@H](O)c1ccccc1)OC)N(C)C(=O)[C@@H](NC(=O)[C@@H](NC)C(C)C)C(C)C [MMAE] (H-[NMeV]V[Dil][Dolaproine]-X1)	–	–	–	Sensitivity of L428 to the small molecule (in words) [3]: sensitive
C[C@]12C=CC(=O)C=C1CC[C@@H]1[C@@H]2C(=O)C[C@@]2(C)[C@H]1CC[C@]2(O)C(=O)CO [Prednisone]	113	98.5	187	–
CNNCc1ccc(C(=O)NC(C)C)cc1 [Procarbazine]	500	24.7	26.9	–
CC[C@]1(O)C[C@H]2CN(CCc3c([nH]c4ccccc34)[C@@](C(=O)OC)(c3cc4c(cc3OC)N(C=O)[C@H]3[C@@](O)(C(=O)OC)[C@H](OC(C)=O)[C@]5(CC)C=CCN6CC[C@]43[C@@H]65)C2)C1 [Vincristine]	0.0281	0.000772	0.0185	–
Bleomycin	–	–	–	IC50 (Karpas299 cells; read-out: IC50 of single drug): 1.68 µM; IC50 ([1]; read-out: IC50 of single drug): 3.2 µM; IC50 ([2]; read-out: IC50 of single drug): 2.04 µM
CD243 (ABC B1) monoclonal antibody (UIC 2), PE (ThermoFisher)	–	–	–	MDR1 binding ratio [4]: 2.6; MDR1 binding ratio [5]: 1.2; MDR1 binding ratio [6]: 16.1; MDR1 binding ratio [7]: 1.2
